Here are results for five molecules from patent US9474790B2, “Stable, protracted GLP-1/glucagon receptor co-agonists for medical use” (Novo Nordisk A/S, priority 2013, dated 2016).

Numbered stars: 1 amine (or outer) side, 2 acyl side, 3 side chain; on linkers, the order of the positions; unused ones are H or OH. Bridge positions count the residues as written; N and C are the ends. Square brackets hold non-standard residues; d marks the D form. Side chains are listed from the residue outwards. Peptide text beside a SMILES is read from it. I, II: the chains in the order shown. * marks the point of attachment. C18 diacid = O=C(O)CCCCCCCCCCCCCCCCC(=O)*; γGlu = O=C(O)[C@H](CCC(=O)[*:2])N[*:1]; Ac4c = NC1(C(=O)O)CCC1; AEEA = NCCOCCOCC(=O)O; Aib = CC(C)(N)C(=O)O

Series [1] can be described thus: Chemical stability assessment by RP-UPLC. In kind it is physicochemical. To be noted: 333 μM, 8 mM phosphate buffer pH 7.3, 37° C. vs 5° C. The gist of the method:
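Purity loss = (purity after 14 days at 5° C. minus that at 37° C.) relative to the 5° C. value, purity being main-peak area % by RP-UPLC with UV at 215 nm. Samples were 333 μM in 8 mM phosphate, pH 7.3; gradient adjusted for outlying retention times.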

For another series, the target named is T1, human GLP-1 receptor (Homo sapiens, UniProt P43220).
T1 construct: expressed in transfected cells; host or cells: BHK cells (parent BHKTS13), clone FCW467-12A/KZ10-1, with CRE luciferase
The series is described as follows: GLP-1 receptor binding, 125I-GLP-1 displacement SPA on isolated membranes. To be noted: displacement of 125I-GLP-1 from membranes; read-out: IC50 GLP-1R. The gist of the method: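 SPA displacement of 125I-GLP-1(7-36)NH2 from membranes of BHK cells expressing human GLP-1 receptor, with WGA beads, in 50 mM HEPES, 5 mM EGTA, 5 mM MgCl2, 0.005% Tween 20, pH 7.4. Incubated 2 h at 30°C; IC50 by non-linear regression, run at ≤0.001% or 2.0% final serum albumin.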

T1 sequence (P43220 24-463): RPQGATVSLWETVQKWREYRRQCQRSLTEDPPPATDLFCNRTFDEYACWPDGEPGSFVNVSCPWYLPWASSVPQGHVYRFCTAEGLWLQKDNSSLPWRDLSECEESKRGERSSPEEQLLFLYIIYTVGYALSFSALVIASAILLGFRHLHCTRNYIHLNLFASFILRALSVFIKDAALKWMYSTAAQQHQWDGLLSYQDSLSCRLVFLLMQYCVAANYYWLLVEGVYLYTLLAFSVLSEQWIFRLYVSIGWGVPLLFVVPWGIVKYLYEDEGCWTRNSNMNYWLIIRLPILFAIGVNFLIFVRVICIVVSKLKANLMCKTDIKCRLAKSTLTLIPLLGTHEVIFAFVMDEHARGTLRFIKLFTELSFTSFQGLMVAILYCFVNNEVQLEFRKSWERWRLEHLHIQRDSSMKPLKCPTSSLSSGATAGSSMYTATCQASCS

Take `CC(C)C[C@H](NC(=O)[C@H](CC(=O)O)NC(=O)[C@H](CC(C)C)NC(=O)[C@H](Cc1ccc(O)cc1)NC(=O)[C@H](CCCCN)NC(=O)[C@H](CO)NC(=O)[C@H](CC(C)C)NC(=O)[C@H](CC(=O)O)NC(=O)[C@H](CO)NC(=O)[C@@H](NC(=O)[C@H](Cc1ccccc1)NC(=O)[C@@H](NC(=O)CNC(=O)[C@H](CCC(N)=O)NC(=O)C(C)(C)NC(=O)[C@@H](N)Cc1c[nH]cn1)[C@@H](C)O)[C@@H](C)O)C(=O)N[C@@H](CCCNC(=N)N)C(=O)N[C@@H](CCCNC(=N)N)C(=O)N[C@@H](C)C(=O)N[C@@H](CCCNC(=N)N)C(=O)N[C@@H](CC(=O)O)C(=O)N[C@@H](Cc1ccccc1)C(=O)N[C@H](C(=O)N[C@@H](CCC(N)=O)C(=O)N[C@@H](Cc1c[nH]c2ccccc12)C(=O)N[C@@H](CC(C)C)C(=O)N[C@@H](CC(C)C)C(=O)N[C@@H](CCCCNC(=O)CNC(=O)[C@H](CO)NC(=O)[C@H](CCC(=O)O)NC(=O)[C@H](CO)NC(=O)CC[C@H](NC(=O)CC[C@H](NC(=O)CCCCCCCCCCCCCCCCC(=O)O)C(=O)O)C(=O)O)C(=O)N[C@H](C(N)=O)[C@@H](C)O)C(C)C` [Example 55, N^ε28-[2-[[(2S)-2-[[(2S)-4-carboxy-2-[[(2S)-2-[[(4S)-4-carboxy-4-[[(4S)-4-carboxy-4-(17-carboxyheptadecanoylamino)butanoyl]amino]butanoyl]amino]-3-hydroxypropanoyl]amino]butanoyl]amino]-3-hydroxypropanoyl]amino]acetyl]-[Aib2,Leu10,Leu16,Arg20,Leu27,Lys28]-Glucagon amide] (H-H[Aib]QGTFTSDLSKYLDLRRARDFVQWLLK([Gly-Ser-Glu-Ser-γGlu-γGlu-C18 diacid])T-NH2; N-terminus assumed): the “Purity loss; 14 days at 37° C.” value in series [1] is listed as 2%. In addition, the half-maximal inhibitory concentration (IC50) at human GLP-1 receptor was 1.1 nM.

For `CC(C)C[C@H](NC(=O)[C@H](Cc1ccc(O)cc1)NC(=O)[C@H](CCCCN)NC(=O)[C@H](CO)NC(=O)[C@H](CC(C)C)NC(=O)[C@H](CC(=O)O)NC(=O)[C@H](CO)NC(=O)[C@@H](NC(=O)[C@H](Cc1ccccc1)NC(=O)[C@@H](NC(=O)CNC(=O)[C@H](CCC(N)=O)NC(=O)C(C)(C)NC(=O)[C@@H](N)Cc1c[nH]cn1)[C@@H](C)O)[C@@H](C)O)C(=O)N[C@@H](CCC(=O)O)C(=O)N[C@@H](CO)C(=O)N[C@@H](CCCNC(=N)N)C(=O)N[C@@H](CCCNC(=N)N)C(=O)N[C@@H](C)C(=O)N[C@@H](CCCNC(=N)N)C(=O)N[C@@H](CCC(=O)O)C(=O)N[C@@H](Cc1ccccc1)C(=O)N[C@H](C(=O)N[C@@H](CCC(N)=O)C(=O)N[C@@H](Cc1c[nH]c2ccccc12)C(=O)N[C@@H](CC(C)C)C(=O)N[C@@H](CC(C)C)C(=O)N[C@@H](CCCCNC(=O)CC[C@H](NC(=O)CC[C@H](NC(=O)[C@H](CO)NC(=O)[C@H](CCC(=O)O)NC(=O)[C@H](CO)NC(=O)CC[C@H](NC(=O)CC[C@H](NC(=O)CCCCCCCCCCCCCCCCC(=O)O)C(=O)O)C(=O)O)C(=O)O)C(=O)O)C(=O)N[C@H](C(N)=O)[C@@H](C)O)C(C)C` [Example 67, N^ε28-[(4S)-4-carboxy-4-[[(4S)-4-carboxy-4-[[(2S)-2-[[(2S)-4-carboxy-2-[[(2S)-2-[[(4S)-4-carboxy-4-[[(4S)-4-carboxy-4-(17-carboxyheptadecanoylamino)butanoyl]amino]butanoyl]amino]-3-hydroxypropanoyl]amino]butanoyl]amino]-3-hydroxypropanoyl]amino]butanoyl]amino]butanoyl]-[Aib2,Leu10,Glu15,Arg20,Glu21,Leu27,Lys28]-Glucagon amide] (H-H[Aib]QGTFTSDLSKYLESRRAREFVQWLLK([γGlu-γGlu-Ser-Glu-Ser-γGlu-γGlu-C18 diacid])T-NH2; N-terminus assumed), the “Purity loss; 14 days at 37° C.” value in series [1] is listed as 4%. For the same molecule, the IC50 on human GLP-1 receptor turned out to be 0.3 nM.

As for `CC(C)C[C@H](NC(=O)[C@H](Cc1ccc(O)cc1)NC(=O)[C@H](CCCCN)NC(=O)[C@H](CO)NC(=O)[C@H](CC(C)C)NC(=O)[C@H](CC(=O)O)NC(=O)[C@H](CO)NC(=O)[C@@H](NC(=O)[C@H](Cc1ccccc1)NC(=O)[C@@H](NC(=O)CNC(=O)[C@H](CCC(N)=O)NC(=O)C(C)(C)NC(=O)[C@@H](N)Cc1c[nH]cn1)[C@@H](C)O)[C@@H](C)O)C(=O)N[C@@H](CCC(=O)O)C(=O)N[C@@H](CO)C(=O)N[C@@H](CCCNC(=N)N)C(=O)N[C@@H](CCCNC(=N)N)C(=O)N[C@@H](C)C(=O)N[C@@H](CCCNC(=N)N)C(=O)N[C@@H](CCC(=O)O)C(=O)N[C@@H](Cc1ccccc1)C(=O)N[C@H](C(=O)N[C@@H](CCC(N)=O)C(=O)N[C@@H](Cc1c[nH]c2ccccc12)C(=O)N[C@@H](CC(C)C)C(=O)N[C@@H](CC(C)C)C(=O)N[C@@H](CCCCNC(=O)CC[C@H](NC(=O)CC[C@H](NC(=O)COCCOCCNC(=O)COCCOCCNC(=O)CC[C@H](NC(=O)CCCCCCCCCCCCCCCCC(=O)O)C(=O)O)C(=O)O)C(=O)O)C(=O)N[C@H](C(N)=O)[C@@H](C)O)C(C)C` [Example 23, N^ε28-[(4S)-4-carboxy-4-[[(4S)-4-carboxy-4-[[2-[2-[2-[[2-[2-[2-[[(4S)-4-carboxy-4-(17-carboxyheptadecanoylamino)butanoyl]amino]ethoxy]ethoxy]acetyl]amino]ethoxy]ethoxy]acetyl]amino]butanoyl]amino]butanoyl]-[Aib2,Leu10,Glu15,Arg20,Glu21,Leu27,Lys28]-Glucagon amide] (H-H[Aib]QGTFTSDLSKYLESRRAREFVQWLLK([γGlu-γGlu-AEEA-AEEA-γGlu-C18 diacid])T-NH2; N-terminus assumed), in series [1], the “Purity loss; 14 days at 37° C.” value came out at 2%. In addition, the half-maximal inhibitory concentration (IC50) at human GLP-1 receptor was 0.3 nM.

With `CC(C)C[C@H](NC(=O)[C@H](CC(=O)O)NC(=O)[C@H](CC(C)C)NC(=O)[C@H](Cc1ccc(O)cc1)NC(=O)[C@H](CCCCN)NC(=O)[C@H](CO)NC(=O)[C@H](CC(C)C)NC(=O)[C@H](CC(=O)O)NC(=O)[C@H](CO)NC(=O)[C@@H](NC(=O)[C@H](Cc1ccccc1)NC(=O)[C@@H](NC(=O)CNC(=O)[C@H](CCC(N)=O)NC(=O)C1(NC(=O)[C@@H](N)Cc2c[nH]cn2)CCC1)[C@@H](C)O)[C@@H](C)O)C(=O)N[C@@H](CCCCN)C(=O)N[C@@H](CCCNC(=N)N)C(=O)N[C@@H](C)C(=O)N[C@@H](CCCNC(=N)N)C(=O)N[C@@H](CCC(=O)O)C(=O)N[C@@H](Cc1ccccc1)C(=O)N[C@H](C(=O)N[C@@H](CCC(N)=O)C(=O)N[C@@H](Cc1c[nH]c2ccccc12)C(=O)N[C@@H](CC(C)C)C(=O)N[C@@H](CC(C)C)C(=O)N[C@@H](CCCCNC(=O)CNC(=O)[C@H](CO)NC(=O)[C@H](CCC(=O)O)NC(=O)CNC(=O)[C@H](CO)NC(=O)CC[C@H](NC(=O)CC[C@H](NC(=O)CCCCCCCCCCCCCCCCC(=O)O)C(=O)O)C(=O)O)C(=O)N[C@H](C(N)=O)[C@@H](C)O)C(C)C` [Example 48] (I: H-H[Ac4c]QGTFTSDLSKYLDLKRAREFVQWLLKT-NH2 / II: {C18 diacid-γGlu-γGlu}-SGESG; amide I:28-II:C; N-terminus assumed), the “Purity loss; 14 days at 37° C.” value in series [1] is on record as 2%. Besides, at human GLP-1 receptor, the half-inhibitory concentration (IC50) was 0.2 nM.

`CC(C)C[C@H](NC(=O)[C@H](CC(=O)O)NC(=O)[C@H](CC(C)C)NC(=O)[C@H](Cc1ccc(O)cc1)NC(=O)[C@H](CCCNC(=N)N)NC(=O)[C@H](CO)NC(=O)[C@H](CC(C)C)NC(=O)[C@H](CC(=O)O)NC(=O)[C@H](CO)NC(=O)[C@@H](NC(=O)[C@H](Cc1ccccc1)NC(=O)[C@@H](NC(=O)CNC(=O)[C@H](CCC(N)=O)NC(=O)C1(NC(=O)[C@@H](N)Cc2c[nH]cn2)CCC1)[C@@H](C)O)[C@@H](C)O)C(=O)N[C@@H](CCCNC(=N)N)C(=O)N[C@@H](CCCNC(=N)N)C(=O)N[C@@H](C)C(=O)N[C@@H](CCCNC(=N)N)C(=O)N[C@@H](CC(=O)O)C(=O)N[C@@H](Cc1ccccc1)C(=O)N[C@H](C(=O)N[C@@H](CCC(N)=O)C(=O)N[C@@H](Cc1c[nH]c2ccccc12)C(=O)N[C@@H](CC(C)C)C(=O)N[C@@H](CC(C)C)C(=O)N[C@@H](CCCCNC(=O)CC[C@H](NC(=O)CC[C@H](NC(=O)COCCOCCNC(=O)COCCOCCNC(=O)CC[C@H](NC(=O)CC[C@H](NC(=O)CCCCCCCCCCCCCCCCC(=O)O)C(=O)O)C(=O)O)C(=O)O)C(=O)O)C(=O)N[C@H](C(N)=O)[C@@H](C)O)C(C)C` [Example 46, N^ε28-[(4S)-4-carboxy-4-[[(4S)-4-carboxy-4-[[2-[2-[2-[[2-[2-[2-[[(4S)-4-carboxy-4-[[(4S)-4-carboxy-4-(17-carboxyheptadecanoylamino)butanoyl]amino]butanoyl]amino]ethoxy]ethoxy]acetyl]amino]ethoxy]ethoxy]acetyl]amino]butanoyl]amino]butanoyl]-[Acb2,Leu10,Arg12,Leu16,Arg20,Leu27,Lys28]-Glucagon amide] (H-H[Ac4c]QGTFTSDLSRYLDLRRARDFVQWLLK([γGlu-γGlu-AEEA-AEEA-γGlu-γGlu-C18 diacid])T-NH2; N-terminus assumed): the “Purity loss; 14 days at 37° C.” value in series [1] was found to be 1%. For the same molecule, the IC50 on human GLP-1 receptor came out at 1.1 nM.
